These results are taken from patent EP0810221A1 (MITSUBISHI CHEMICAL CORPORATION, priority 1995, dated 1996).

Experiment [1] addresses T1, m-Calpain (Rattus norvegicus, UniProt Q07009).
T1 construct: m-Calpain was purified from brains of rats; from tissue; host or cells: rat brain
T1 sequence (Q07009 20-700 limits assumed): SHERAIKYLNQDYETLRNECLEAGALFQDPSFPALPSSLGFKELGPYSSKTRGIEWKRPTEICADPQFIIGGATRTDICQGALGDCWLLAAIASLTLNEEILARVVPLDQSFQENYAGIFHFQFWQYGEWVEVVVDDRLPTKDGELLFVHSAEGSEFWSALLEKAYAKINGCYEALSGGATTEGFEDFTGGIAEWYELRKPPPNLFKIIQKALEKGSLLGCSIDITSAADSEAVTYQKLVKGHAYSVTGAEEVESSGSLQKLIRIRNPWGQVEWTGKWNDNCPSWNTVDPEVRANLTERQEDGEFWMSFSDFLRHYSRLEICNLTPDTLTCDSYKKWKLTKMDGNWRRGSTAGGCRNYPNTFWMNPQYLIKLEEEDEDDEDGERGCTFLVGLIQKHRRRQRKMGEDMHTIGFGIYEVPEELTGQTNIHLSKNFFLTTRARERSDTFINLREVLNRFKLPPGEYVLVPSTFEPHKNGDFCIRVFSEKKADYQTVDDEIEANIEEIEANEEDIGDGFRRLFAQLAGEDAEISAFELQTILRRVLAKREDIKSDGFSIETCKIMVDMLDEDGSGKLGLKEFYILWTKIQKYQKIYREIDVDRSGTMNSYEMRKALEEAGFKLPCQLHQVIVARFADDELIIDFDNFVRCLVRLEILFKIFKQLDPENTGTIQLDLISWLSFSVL
T1 sequence (Q64537 1-270 partner): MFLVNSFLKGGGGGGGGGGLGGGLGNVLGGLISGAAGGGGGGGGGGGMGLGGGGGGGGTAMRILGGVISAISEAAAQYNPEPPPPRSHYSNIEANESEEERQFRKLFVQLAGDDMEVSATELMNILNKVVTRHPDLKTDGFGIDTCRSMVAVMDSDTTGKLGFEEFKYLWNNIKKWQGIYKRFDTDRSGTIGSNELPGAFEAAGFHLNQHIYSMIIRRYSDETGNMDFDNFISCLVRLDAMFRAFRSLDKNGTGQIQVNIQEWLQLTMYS
Kind of experiment: Inhibitory activity against calpain (m-Calpain purified from brains of rats). The format is biochemical. The procedure: m-Calpain was purified from brains of rats according to a method described in a literature (Journal of Biological Chemistry, Vol. 259, p. 3210, 1984), and the inhibitory activity was determined in a manner according to a published method (Journal of Biological Chemistry, Vol. 259, p. 12489, 1984).

Experiment [2] deals with T2, cathepsin B (Sigma, C-6286) (Bos taurus, UniProt P07688).
T2 construct: purchased Sigma C-6286
Kind of experiment: Inhibitory activity against cathepsin B. Format: biochemical. The settings on record: Inhibitory activity against cathepsin B (Table-5). As to the method: Inhibitory activity against cathepsin B (Sigma, C-6286) was determined according to a method described in a literature (Biochemical Journal, Vol. 201, p. 189, 1982).

The mark [3] stands for this setting: Inhibitory activity against calpain (Table-6).
The mark [4] stands for this setting: Inhibitory activity against calpain (continuation of Table-6).

Molecules are shown by their SMILES. pIC50: −log10 of the molar value.

Turning to `CC(C)C[C@H](NC(=O)c1cccc(F)c1)C(=O)N[C@H]1CCOC1O` (stereo partly drawn) [Example 41, (3S)-3-{(S)-2-(3-fluorobenzoylamino)-4-methylvalerylamino}-2-tetrahydrofuranol], the negative logarithm of the IC50 (pIC50) (as a rule, −log10 of the IC50, conventionally taken in molar units) in experiment [1] (setting [3]) was 5.94; in experiment [2], 6.06.
On to `CC(C)C[C@H](NC(=O)OCc1ccccc1)C(=O)N[C@H]1CCOC1O` (stereo partly drawn) [Example 13, (3S)-3-((S)-2-benzyloxycarbonylamino-4-methylvalerylamino)-2-tetrahydrofuranol], for which the pIC50 in experiment [1] (setting [3]) was 6.18; in experiment [2] it was 6.42.
Turning to `COc1ccc(C(=O)N[C@@H](CC(C)C)C(=O)N[C@H]2CCOC2O)cc1` (stereo partly drawn) [Example 53, (3S)-3-{(S)-2-(4-methoxybenzoylamino)-4-methylvalerylamino}-2-tetrahydrofuranol], the figures for the pIC50 in experiment [1] (setting [3]) and in experiment [2] were 6.17 and 6.82, respectively.
On the same counts, the results for `CC(C)C[C@H](NC(=O)OCc1ccccn1)C(=O)N[C@H]1CCOC1O` (stereo partly drawn) [Example 25, (3S)-3-{(S)-4-methyl-2-(2-pyridylmethoxycarbonylamino)valerylamino}-2-tetrahydrofuranol] are 5.98 and 5.54.
For `CC(C)C[C@H](NC(=O)c1cccc2ccccc12)C(=O)N[C@H]1CCOC1O` (stereo partly drawn) [Example 59, (3S)-3-{(S)-4-methyl-2-(1-naphthoylamino)valerylamino}-2-tetrahydrofuranol], the pIC50 is 6.40 in experiment [1] (setting [4]) and 6.10 in experiment [2].
Taken in the same sequence, the figures for `COc1ccc(C=CC(=O)N[C@@H](CC(C)C)C(=O)N[C@H]2CCOC2O)cc1` (stereo partly drawn) [Example 65, (3S)-3-{(S)-2-(4-methoxycinnamoylamino)-4-methylvalerylamino}-2-tetrahydrofuranol] were 6.15 and 6.72.
As for `CC(C)C[C@H](NS(=O)(=O)c1ccccc1)C(=O)N[C@H]1CCOC1O` (stereo partly drawn) [Example 1, (3S)-3-((S)-4-methyl-2-phenylsulfonylaminovalerylamino)-2-tetrahydrofuranol], the figures for the pIC50 in experiment [1] (setting [3]) and in experiment [2] were 6.21 and 6.38, respectively.
On the same counts, the results for `CC(C)C[C@H](NC(=O)c1ccccc1)C(=O)N[C@H]1CCOC1O` (stereo partly drawn) [Example 39, (3S)-3-((S)-2-benzoylamino-4-methylvalerylamino)-2-tetrahydrofuranol] are 6.43 and 6.70.
`CC(C)C[C@H](NC(=O)c1ccc(C(F)(F)F)cc1)C(=O)N[C@H]1CCOC1O` (stereo partly drawn) [Example 51, (3S)-3-{(S)-4-methyl-2-(4-trifluoromethylbenzoylamino)valerylamino}-2-tetrahydrofuranol]: the figures for the negative-log IC50 (pIC50) in experiment [1] (setting [3]) and in experiment [2] were 6.32 and 6.68, respectively.
In the case of `Cc1ccccc1COC(=O)N[C@@H](CC(C)C)C(=O)N[C@H]1CCOC1O` (stereo partly drawn) [Example 18, (3S)-3-{(S)-4-methyl-2-(2-methylbenzyloxycarbonylamino)valerylamino}-2-tetrahydrofuranol], the pIC50 in experiment [1] (setting [3]) was 6.36; in experiment [2], 6.24.
On the same counts, the results for `Cc1ccc(C(=O)N[C@@H](CC(C)C)C(=O)N[C@H]2CCOC2O)cc1C` (stereo partly drawn) [Example 48, (3S)-3-{(S)-2-(3,4-dimethylbenzoylamino)-4-methylvalerylamino}-2-tetrahydrofuranol] are 6.42 and 7.07.
With `CCc1cc(C(=O)N[C@@H](CC(C)C)C(=O)N[C@H]2CCOC2O)n(C)n1` (stereo partly drawn) [Example 62, (3S)-3-{(S)-2-(3-ethyl-1-methyl-5-pyrazole)carbonylamino-4-methylvalerylamino}-2-tetrahydrofuranol], the pIC50 in experiment [1] (setting [4]) is 6.00; in experiment [2], 6.30.
`Cc1ccc(COC(=O)N[C@@H](CC(C)C)C(=O)N[C@H]2CCOC2O)cc1` (stereo partly drawn) [Example 19, (3S)-3-{(S)-4-methyl-2-(4-methylbenzyloxycarbonylamino)valerylamino}-2-tetrahydrofuranol]: the pIC50 in experiment [1] (setting [3]) was 6.32; in experiment [2], 6.05.
Taken in the same sequence, the figures for `CC(C)C[C@H](NC(=O)OCC1CCCCC1)C(=O)N[C@H]1CCOC1O` (stereo partly drawn) [Example 12, (3S)-3-((S)-2-cyclohexylmethoxycarbonylamino-4-methylvalerylamino)-2-tetrahydrofuranol] were 6.19 and 5.92.
Consider `COc1ccccc1COC(=O)N[C@@H](CC(C)C)C(=O)N[C@H]1CCOC1O` (stereo partly drawn) [Example 20, (3S)-3-{(S)-2-(2-methoxybenzyloxycarbonylamino)-4-methylvalerylamino)-2-tetrahydrofuranol], for which the results for the pIC50 in experiment [1] (setting [3]) and in experiment [2] were 6.25 and 5.98, respectively.
Consider `CCC[C@H](NC(=O)OCc1ccccc1)C(=O)N[C@H]1CCOC1O` (stereo partly drawn) [Example 4, (3S)-3-((S)-2-benzyloxycarbonylaminovalerylamino)-2-tetrahydrofuranol], for which the negative logarithm of the IC50 (pIC50) in experiment [1] (setting [3]) was 6.05; in experiment [2] it was 6.15.
On to `CC(C)C[C@H](NC(=O)COc1ccccc1)C(=O)N[C@H]1CCOC1O` (some centres unmarked) [Example 34], for which the pIC50 was 6.48 in experiment [1] (setting [3]) and 5.87 in experiment [2].
Take `COc1cccc(OC)c1C(=O)N[C@@H](CC(C)C)C(=O)N[C@H]1CCOC1O` (stereo partly drawn) [Example 55, (3S)-3-{(S)-2-(2,6-dimethoxybenzoylamino)-4-methylvalerylamino}-2-tetrahydrofuranol]: the pIC50 in experiment [1] (setting [3]) was 6.08; in experiment [2], 5.78.
In the case of `CCOc1ccc(C(=O)N[C@@H](CC(C)C)C(=O)N[C@H]2CCOC2O)cc1` (stereo partly drawn) [Example 57, (3S)-3-{(S)-2-(4-ethoxybenzoylamino)-4-methylvalerylamino}-2-tetrahydrofuranol], the negative logarithm of the IC50 (pIC50) in experiment [1] (setting [4]) was 6.60; in experiment [2], 6.62.
Turning to `CC(C)C[C@H](NC(=O)c1ccc(Cl)cc1)C(=O)N[C@H]1CCOC1O` (stereo partly drawn) [Example 43, (3S)-3-{(S)-2-(4-chlorobenzoylamino)-4-methylvalerylamino}-2-tetrahydrofuranol], the figures for the pIC50 in experiment [1] (setting [3]) and in experiment [2] were 6.44 and 6.85, respectively.
On the same counts, the results for `CC(C)C[C@H](NC(=O)OCc1ccc(F)cc1)C(=O)N[C@H]1CCOC1O` (stereo partly drawn) [Example 15, (3S)-3-{(S)-2-(4-fluorobenzyloxycarbonylamino)-4-methylvalerylamino}-2-tetrahydrofuranol] are 6.17 and 6.15.
Consider `CC(C)C[C@H](NS(=O)(=O)c1cccnc1)C(=O)N[C@H]1CCOC1O` (stereo partly drawn) [Example 77, (3S)-3-{(S)-4-methyl-2-(3-pyridylsulfonylamino)valerylamino}-2-tetrahydrofuranol], for which the negative logarithm of the IC50 (pIC50) in experiment [1] (setting [4]) is 6.00; in experiment [2] it was 6.40.
For `CC(C)COC(=O)N[C@@H](CC(C)C)C(=O)N[C@H]1CCOC1O` (stereo partly drawn) [Example 11, (3S)-3-((S)-2-isobutoxycarbonylamino-4-methylvalerylamino)-2-tetrahydrofuranol], the pIC50 in experiment [1] (setting [3]) was 5.96; in experiment [2], 5.67.
As to `CC(C)[C@H](NC(=O)OCc1ccccc1)C(=O)NC1CCOC1O` (stereo partly drawn) [Example 5, 3-((S)-2-benzyloxycarbonylamino-3-methylbutyrylamino)-2-tetrahydrofuranol], the pIC50 in experiment [1] (setting [3]) is 5.64; in experiment [2] it was 6.01.
Turning to `CC(C)C[C@H](NC(=O)Oc1ccccc1)C(=O)N[C@H]1CCOC1O` (stereo partly drawn) [Example 28, (3S)-3-((S)-4-methyl-2-phenoxycarbonylaminovalerylamino)-2-tetrahydrofuranol], the pIC50 was 6.28 in experiment [1] (setting [3]) and 5.77 in experiment [2].
In the case of `CC(C)C[C@H](NC(=O)c1ccc2c(c1)OCO2)C(=O)N[C@H]1CCOC1O` (stereo partly drawn) [Example 58, (3S)-3-{(S)-4-methyl-2-(3,4-methylenedioxybenzoylamino)valerylamino}-2-tetrahydrofuranol], the pIC50 in experiment [1] (setting [4]) was 6.36; in experiment [2] it was 6.34.
As to `CC(C)C[C@H](NC(=O)OCc1ccc(Cl)cc1)C(=O)N[C@H]1CCOC1O` (stereo partly drawn) [Example 17, (3S)-3-{(S)-2-(4-chlorobenzyloxycarbonylamino)-4-methylvalerylamino}-2-tetrahydrofuranol], the negative-log IC50 (pIC50) in experiment [1] (setting [3]) is 6.41; in experiment [2] it was 6.19.
For the compound `CC(C)C[C@H](NC(=O)[C@H](CC(C)C)NS(=O)(=O)c1ccccc1)C(=O)N[C@H]1CCOC1O` (stereo partly drawn) [Example 87, (3S)-3-{(S)-2-((S)-4-methyl-2-phenylsulfonylaminovalerylamino)-4-methylvalerylamino}-2-tetrahydrofuranol], the figures for the pIC50 in experiment [1] (setting [4]) and in experiment [2] were 6.11 and 5.89, respectively.
